US9302999B2, “Substituted triazoles as herbicides” (E. I. DU PONT DE NEMOURS AND COMPANY, priority 2012, dated 2016)

Experiments:
Assay type in all cases: in vivo
[1] = test system: pigweed (Amaranthus retroflexus); test: Test D pre-/postemergence: pigweed
In short: (§1)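 Scores run from 0 (no effect) to 100 (complete control), assigned by visual comparison with controls after 14 to 21 days in a controlled environment. Both preemergence application to silt loam and postemergence application to 1- to 4-leaf plants were tested.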

[2] = test system: foxtail, green (green foxtail, Setaria viridis); test: Test D pre-/postemergence: foxtail, green
In short: as §1

[3] = test system: poinsettia, wild (wild poinsettia, Euphorbia heterophylla); test: Test F pre-/postemergence: poinsettia, wild
In short: (§2)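 0–100 visual control scores, taken 14–21 d after application in the greenhouse. Preemergence treatment was made to silt loam soil at sowing. Postemergence sprays hit 1- to 4-leaf plants (2–18 cm) in peat/vermiculite mix. Surfactant-containing non-phytotoxic solvent served as the vehicle.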

[4] = test system: galium (catchweed bedstraw, Galium aparine); test: Test D pre-/postemergence: galium; settings: Postemergence
In short: as §1

[5] = test system: crabgrass, Brazil (Brazilian crabgrass, Digitaria horizontalis); test: Test F pre-/postemergence: crabgrass, Brazil; settings: Postemergence, scale 0 to 100
In short: as §2

[6] = test system: barnyardgrass (Echinochloa crus-galli); test: Test F pre-/postemergence: barnyardgrass
In short: as §2

[7] = test system: oilseed rape (Brassica napus); test: Test D pre-/postemergence: oilseed rape
In short: as §1

[8] = Postemergence, 31 g ai/ha, scale 0 to 100 (0 no effect, 100 complete control)
[9] = Postemergence, 62 g ai/ha, scale 0 to 100 (0 no effect, 100 complete control)
[10] = Postemergence, 125 g ai/ha, scale 0 to 100, 0 no effect, 100 complete control
[11] = Postemergence, 16 g ai/ha, scale 0 to 100
[12] = Preemergence, 16 g ai/ha, scale 0 to 100, 0 no effect, 100 complete control
[13] = Preemergence, 31 g ai/ha, scale 0 to 100, 0 no effect, 100 complete control
[14] = Preemergence, 62 g ai/ha, scale 0 to 100
[15] = Preemergence, 125 g ai/ha, scale 0 to 100
[16] = Postemergence, 8 g ai/ha, scale 0 to 100
[17] = Postemergence, 31 g ai/ha, scale 0 to 100
[18] = Postemergence, 62 g ai/ha, scale 0 to 100
[19] = Postemergence, 125 g ai/ha, scale 0 to 100
[20] = Preemergence, 8 g ai/ha, scale 0 to 100, 0 no effect, 100 complete control

`CCOc1nn(-c2ccc(F)cc2)nc1Cc1ccnc(C(F)(F)F)c1` [Compound 196, 4-[[5-ethoxy-2-(4-fluorophenyl)-2H-1,2,3-triazol-4-yl]methyl]-2-(trifluoromethyl)pyridine] was tested, and the “Plant response rating: Pigweed” value [1, 8] was 95, the “Plant response rating: Pigweed” value [1, 9] was 95 and the “Plant response rating: Pigweed” value [1, 10] was 100. The “Plant response rating, Pigweed” value [1, 11] was 85, the “Plant response rating, Pigweed” value [1, 12] was 65 and the “Plant response rating, Pigweed” value [1, 13] was 100. The “Plant response rating, Pigweed” value [1, 14] was 100, the “Plant response rating, Pigweed” value [1, 15] was 100 and the “Plant response rating: Foxtail, Green” value [2, 8] was 80. For the same compound, the “Plant response rating: Foxtail, Green” value [2, 9] was 85, the “Plant response rating: Foxtail, Green” value [2, 10] was 95 and the “Plant response rating, Foxtail, Green” value [2, 11] was 55. For the same compound, the “Plant response rating, Foxtail, Green” value [2, 12] was 60, the “Plant response rating, Foxtail, Green” value [2, 13] was 60 and the “Plant response rating, Foxtail, Green” value [2, 14] was 75. The “Plant response rating, Foxtail, Green” value [2, 15] was 100, the “Plant response rating, Poinsettia, Wild” value [3, 16] was 75 and the “Plant response rating, Poinsettia, Wild” value [3, 11] was 85. The “Plant response rating, Poinsettia, Wild” value [3, 17] was 95, the “Plant response rating, Poinsettia, Wild” value [3, 18] was 95 and the “Plant response rating, Poinsettia, Wild” value [3, 19] was 95. The “Plant response rating, Poinsettia, Wild” value [3, 20] was 0, the “Plant response rating, Poinsettia, Wild” value [3, 12] was 50 and the “Plant response rating, Poinsettia, Wild” value [3, 13] was 50. The “Plant response rating, Poinsettia, Wild” value [3, 15] was 75, the “Plant response rating: Galium” value ([4]; 31 g ai/ha, scale 0 to 100 (0 no effect, 100 complete control)) was 85 and the “Plant response rating: Galium” value ([4]; 62 g ai/ha, scale 0 to 100 (0 no effect, 100 complete control)) was 70. For the same compound, the “Plant response rating: Galium” value ([4]; 125 g ai/ha, scale 0 to 100, 0 no effect, 100 complete control) was 90, the “Plant response rating, Galium” value ([4]; 16 g ai/ha, scale 0 to 100) was 70 and the “Plant response rating, Crabgrass, Brazil” value ([5]; 8 g ai/ha) was 60. For the same compound, the “Plant response rating, Crabgrass, Brazil” value ([5]; 16 g ai/ha) was 75, the “Plant response rating, Crabgrass, Brazil” value ([5]; 31 g ai/ha) was 85 and the “Plant response rating, Crabgrass, Brazil” value ([5]; 62 g ai/ha) was 95. The “Plant response rating, Crabgrass, Brazil” value ([5]; 125 g ai/ha) was 95, the “Plant response rating, Barnyardgrass” value [6, 16] was 30 and the “Plant response rating, Barnyardgrass” value [6, 11] was 40. For the same compound, the “Plant response rating, Barnyardgrass” value [6, 17] was 60, the “Plant response rating, Barnyardgrass” value [6, 18] was 60 and the “Plant response rating, Barnyardgrass” value [6, 19] was 90. The “Plant response rating, Barnyardgrass” value [6, 20] was 0, the “Plant response rating, Barnyardgrass” value [6, 12] was 25 and the “Plant response rating, Barnyardgrass” value [6, 13] was 40. The “Plant response rating, Barnyardgrass” value [6, 14] was 70, the “Plant response rating, Barnyardgrass” value [6, 15] was 100 and the “Plant response rating: Oilseed Rape” value [7, 8] was 100. The “Plant response rating: Oilseed Rape” value [7, 9] was 100, the “Plant response rating: Oilseed Rape” value [7, 10] was 100 and the “Plant response rating, Oilseed Rape” value [7, 11] was 80. The “Plant response rating, Oilseed Rape” value [7, 12] was 5, the “Plant response rating, Oilseed Rape” value [7, 13] was 15 and the “Plant response rating, Oilseed Rape” value [7, 14] was 100. For the same compound, the “Plant response rating, Oilseed Rape” value [7, 15] was 100.
